Results reported in the NIST ThermoML archive (doi:10.1016/j.jct.2016.06.023).
Numbers after ± are expanded uncertainties.

Assay: mn = molality of the nth substance listed, in mol/kg
Conditions: 101.3 kPa, Liquid, Vibrating tube method

O=C(O)CC(=O)O [propanedioic acid] + O
mass density [kg/m3]
Conditions | 313.15 K | 318.15 K | 323.15 K | 328.15 K | 333.15 K | 338.15 K | 343.15 K
m1 = 0.01001 | 992.67 ± 0.4 | 990.67 ± 0.4 | 988.48 ± 0.4 | 986.12 ± 0.4 | 983.63 ± 0.4 | 980.99 ± 0.4 | 978.22 ± 0.4
m1 = 0.02001 | 993.03 ± 0.4 | 991.04 ± 0.4 | 988.85 ± 0.4 | 986.5 ± 0.4 | 984.01 ± 0.4 | 981.37 ± 0.4 | 978.59 ± 0.4
m1 = 0.03 | 993.37 ± 0.4 | 991.39 ± 0.4 | 989.19 ± 0.4 | 986.83 ± 0.4 | 984.34 ± 0.4 | 981.69 ± 0.4 | 978.9 ± 0.4
m1 = 0.03962 | 993.74 ± 0.4 | 991.75 ± 0.4 | 989.54 ± 0.4 | 987.17 ± 0.4 | 984.68 ± 0.4 | 982.03 ± 0.4 | 979.24 ± 0.4
m1 = 0.04998 | 994.12 ± 0.4 | 992.09 ± 0.4 | 989.92 ± 0.4 | 987.55 ± 0.4 | 985.05 ± 0.4 | 982.41 ± 0.4 | 979.6 ± 0.4
m1 = 0.05936 | 994.45 ± 0.4 | 992.44 ± 0.4 | 990.24 ± 0.4 | 987.86 ± 0.4 | 985.36 ± 0.4 | 982.72 ± 0.4 | 979.92 ± 0.4
m1 = 0.06926 | 994.8 ± 0.4 | 992.8 ± 0.4 | 990.58 ± 0.4 | 988.21 ± 0.4 | 985.69 ± 0.4 | 983 ± 0.4 | 980.22 ± 0.4
m1 = 0.07949 | 995.16 ± 0.4 | 993.16 ± 0.4 | 990.94 ± 0.4 | 988.56 ± 0.4 | 986.05 ± 0.4 | 983.39 ± 0.4 | 980.58 ± 0.4
m1 = 0.08906 | 995.51 ± 0.4 | 993.49 ± 0.4 | 991.26 ± 0.4 | 988.89 ± 0.4 | 986.37 ± 0.4 | 983.68 ± 0.4 | 980.9 ± 0.4
m1 = 0.09935 | 995.86 ± 0.4 | 993.83 ± 0.4 | 991.63 ± 0.4 | 989.26 ± 0.4 | 986.72 ± 0.4 | 984.02 ± 0.4 | 981.18 ± 0.4
m1 = 0.1984 | 999.32 ± 0.4 | 997.27 ± 0.4 | 995 ± 0.4 | 992.58 ± 0.4 | 990.02 ± 0.4 | 987.31 ± 0.4 | 984.49 ± 0.4
m1 = 0.2977 | 1002.76 ± 0.4 | 1000.66 ± 0.4 | 998.36 ± 0.4 | 995.89 ± 0.4 | 993.31 ± 0.4 | 990.55 ± 0.4 | 987.71 ± 0.4
m1 = 0.404 | 1006.4 ± 0.4 | 1004.17 ± 0.4 | 1001.82 ± 0.4 | 999.32 ± 0.4 | 996.78 ± 0.4 | 993.95 ± 0.4 | 991.05 ± 0.4
m1 = 0.5055 | 1009.9 ± 0.4 | 1007.57 ± 0.4 | 1005.17 ± 0.4 | 1002.63 ± 0.4 | 999.91 ± 0.4 | 997.16 ± 0.4 | 994.29 ± 0.4
m1 = 0.6055 | 1013.17 ± 0.4 | 1010.78 ± 0.4 | 1008.36 ± 0.4 | 1005.78 ± 0.4 | 1003.1 ± 0.4 | 1000.24 ± 0.4 | 997.39 ± 0.4
m1 = 0.6936 | 1016.02 ± 0.4 | 1013.61 ± 0.4 | 1011.15 ± 0.4 | 1008.54 ± 0.4 | 1005.81 ± 0.4 | 1002.93 ± 0.4 | 1000.21 ± 0.4
m1 = 0.7926 | 1019.25 ± 0.4 | 1016.73 ± 0.4 | 1014.23 ± 0.4 | 1011.64 ± 0.4 | 1008.99 ± 0.4 | 1006 ± 0.4 | 1002.97 ± 0.4
m1 = 0.891 | 1022.41 ± 0.4 | 1019.67 ± 0.4 | 1017.35 ± 0.4 | 1014.68 ± 0.4 | 1011.89 ± 0.4 | 1008.94 ± 0.4 | 1005.93 ± 0.4
m1 = 0.9895 | 1025.39 ± 0.4 | 1022.8 ± 0.4 | 1020.22 ± 0.4 | 1017.49 ± 0.4 | 1014.63 ± 0.4 | 1011.16 ± 0.4 | 1008.49 ± 0.4
